The results in this text go back to publication doi:10.1101/2021.10.07.463234v2 (biorxiv, 2021).

Structures can show the parent of a compound that is named as a salt.

For one assay, the target named is SARS-CoV-2 Mac1 (Severe acute respiratory syndrome coronavirus 2, UniProt P0DTD1). The experiment in a line: biochemical. As to conditions: 100 µM; inhibitor.
For `COC(=O)c1ccc2c(C(=Nc3ccc(N(C)C(=O)CN4CCN(C)CC4)cc3)c3ccccc3)c(O)[nH]c2c1` [Nintedanib Ethanesulfonate Salt], the %inhibition (as a rule, the relative decrease from the control value, in per cent) is 8.812%.

`NC(=O)c1cccc2cn(-c3ccc([C@@H]4CCCNC4)cc3)nc12` [Niraparib (MK-4827) tosylate]: the “%inhibition” value turned out to be 14.33%.

For `NC(=O)c1cccc2cn(-c3ccc([C@@H]4CCCNC4)cc3)nc12` [Niraparib (MK-4827)], the “%inhibition” value amounted to 4.387%.

For the molecule `CCOC(=O)C1=C[C@@H](OC(CC)CC)[C@H](NC(C)=O)[C@@H](N)C1` [Oseltamivir Phosphate], the “%inhibition” value is reported as 4.261%.

Consider `O=C(O)/C=C/c1ccc(Cn2ccnc2)cc1` [Ozagrel HCl], for which the “%inhibition” value turned out to be 0%.

Take `O=C(O)/C=C/c1ccc(Cn2ccnc2)cc1` [Ozagrel sodium]: the “%inhibition” value is given as 1.667%.

Turning to `O=C(O)/C=C/c1ccc(Cn2ccnc2)cc1` [Ozagrel], the “%inhibition” value came to 4.368%.

Still in this assay, the particulars now being: read-out: %inhibition.
Consider `COC(=O)C1=C(C)NC(C)=C(C(=O)OCC(C)C)C1c1ccccc1[N+](=O)[O-]` (centres unmarked) [Nisoldipine], for which the inhibition (commonly how much of the control response was suppressed) at 100 µM was determined as 16.9%.

Consider `CC(=O)Oc1ccccc1C(=O)Nc1ncc([N+](=O)[O-])s1` [Nitazoxanide], for which the inhibition at 100 µM came out at 0%.

As for `O=C1CCCC(=O)C1C(=O)c1ccc(C(F)(F)F)cc1[N+](=O)[O-]` [Nitisinone], the inhibition at 100 µM was found to be 2.19%.

For `CCOC(=O)C1=C(C)NC(C)=C(C(=O)OC)C1c1cccc([N+](=O)[O-])c1` (centres unmarked) [Nitrendipine], the inhibition at 100 µM came to 4.31%.

Take `NC(=O)N/N=C/c1ccc([N+](=O)[O-])o1` [Nitrofural]: the inhibition at 100 µM is 0%.

In the case of `O=C1CN(/N=C/c2ccc([N+](=O)[O-])o2)C(=O)N1` [Nitrofurantoin], the inhibition at 100 µM turned out to be 4.04%.

Take `O=[N+]([O-])c1ccc(O)c2ncccc12` [Nitroxoline]: the inhibition at 100 µM amounted to 0%.

Take `CNC(=C[N+](=O)[O-])NCCSCc1csc(CN(C)C)n1` [Nizatidine]: the inhibition at 100 µM is 46.1%.

Regarding `CCCCCCCCC(=O)NCc1ccc(O)c(OC)c1` [Nonivamide], the inhibition at 100 µM came to 1.16%.

Consider `NC[C@H](O)c1ccc(O)c(O)c1` [Noradrenaline bitartrate monohydrate], for which the inhibition at 100 µM worked out at 18.9%.

As to `C#C[C@]1(O)CC[C@H]2[C@@H]3CCC4=CC(=O)CC[C@@H]4[C@H]3CC[C@@]21C` [Norethindrone], the inhibition at 100 µM was determined as 0%.

Turning to `CCn1cc(C(=O)O)c(=O)c2cc(F)c(N3CCNCC3)cc21` [Norfloxacin], the inhibition at 100 µM came to 24.7%.

As for `C#CC1(O)CC[C@H]2[C@@H]3CCC4=CC(=O)CC[C@@H]4[C@H]3CC[C@@]21CC` (some centres unmarked) [Norgestrel], the inhibition at 100 µM came to 0%.

On to `CNCCC=C1c2ccccc2CCc2ccccc21` [Nortriptyline hydrochloride], for which the inhibition at 100 µM came to 0%.

Regarding `OC1C[C@H]2CC[C@@H](C1)N2` (some centres unmarked) [Nortropine Hydrochloride], the inhibition at 100 µM was 6.37%.

Consider `CO[C@@H]1[C@@H](OC(N)=O)[C@@H](O)[C@H](Oc2ccc3c(O)c(NC(=O)c4ccc(O)c(CC=C(C)C)c4)c(=O)oc3c2C)OC1(C)C` [Novobiocin Sodium], for which the inhibition at 100 µM amounted to 0%.

For the molecule `CC[C@H]1[C@@H](O)[C@@H]2[C@H](CC[C@]3(C)[C@@H]([C@H](C)CCC(=O)O)CC[C@@H]23)[C@@]2(C)CC[C@@H](O)C[C@@H]12` [Obeticholic Acid], the inhibition at 100 µM turned out to be 37.3%.

For `CNS(=O)(=O)C[C@H]1CC[C@H](N(C)c2[nH]cnc3nccc2-3)CC1` [Oclacitinib?maleate], the inhibition at 100 µM amounted to 0%.

As for `CCCCCCCCN=c1ccn(CCCCCCCCCCn2ccc(=NCCCCCCCC)cc2)cc1` [Octenidine Dihydrochloride], the inhibition at 100 µM is 16%.

For the molecule `CCCCC(CC)COC(=O)C=Cc1ccc(OC)cc1` (centres unmarked) [Octinoxate], the inhibition at 100 µM worked out at 0%.

For the molecule `CCCCC(CC)COC(=O)C(C#N)=C(c1ccccc1)c1ccccc1` (centres unmarked) [Octocrylene], the inhibition at 100 µM amounted to 0%.

Regarding `O=C(c1cc(Cc2n[nH]c(=O)c3ccccc23)ccc1F)N1CCN(C(=O)C2CC2)CC1` [Olaparib (AZD2281, Ku-0059436)], the inhibition at 100 µM was determined as 20.2%.

As for `CCCc1nc(C(C)(C)O)c(C(=O)OCc2oc(=O)oc2C)n1Cc1ccc(-c2ccccc2-c2nnn[nH]2)cc1` [Olmesartan Medoxomil], the inhibition at 100 µM was determined as 0%.

On to `CCCc1nc(C(C)(C)O)c(C(=O)O)n1Cc1ccc(-c2ccccc2-c2nnn[nH]2)cc1` [Olmesartan], for which the inhibition at 100 µM turned out to be 0%.

Take `C=CC(=O)Nc1cccc(Oc2nc(Nc3ccc(N4CCN(C)CC4)cc3)nc3ccsc23)c1` [Olmutinib (HM61713, BI 1482694)]: the inhibition at 100 µM is 22.3%.

Take `CN(C)CC/C=C1/c2ccccc2COc2ccc(CC(=O)O)cc21` [Olopatadine HCl]: the inhibition at 100 µM was found to be 2.14%.

As for `Cc1[nH]c(=O)c(C#N)cc1-c1ccc2nccn2c1` [Olprinone], the inhibition at 100 µM amounted to 0%.

As for `O=C(O)c1cc(/N=N/c2ccc(O)c(C(=O)O)c2)ccc1O` [Olsalazine Sodium], the inhibition at 100 µM is 11.8%.

On to `Cc1c(-c2cnccn2)ssc1=S` [Oltipraz], for which the inhibition at 100 µM was determined as 0%.

As for `CS(=O)(=O)n1cc2c(n1)CN([C@H]1CO[C@H](c3cc(F)ccc3F)[C@@H](N)C1)C2` [Omarigliptin (MK-3102)], the inhibition at 100 µM amounted to 0%.

On to `COc1ncc(-c2ccc3nccc(-c4ccnnc4)c3c2)cc1NS(=O)(=O)c1ccc(F)cc1F` [Omipalisib (GSK2126458, GSK458)], for which the inhibition at 100 µM was 7.47%.

With `CC(C)c1cc(C(=O)N2Cc3ccc(CN4CCN(C)CC4)cc3C2)c(O)cc1O` [Onalespib (AT13387)], the inhibition at 100 µM was found to be 5.85%.

As to `Cc1nccn1CC1CCc2c(c3ccccc3n2C)C1=O` (centres unmarked) [Ondansetron Hydrochloride Dihydrate], the inhibition at 100 µM was found to be 0%.

Regarding `Cc1[nH]c(/C=C2\C(=O)Nc3ccccc32)c(C)c1CCC(=O)O` [Orantinib (TSU-68, SU6668)], the inhibition at 100 µM worked out at 16.7%.

For `CCCCCCCCCCC[C@@H](C[C@@H]1OC(=O)[C@H]1CCCCCC)OC(=O)[C@H](CC(C)C)NC=O` [Orlistat], the inhibition at 100 µM was 0%.

As to `Cc1ncc([N+](=O)[O-])n1CC(O)CCl` (centres unmarked) [Ornidazole], the inhibition at 100 µM amounted to 17.6%.

As for `O=C(O)c1cc(=O)[nH]c(=O)[nH]1` [Orotic acid (6-Carboxyuracil)], the inhibition at 100 µM amounted to 0%.

For the molecule `C=CC(=O)Nc1cc(Nc2nccc(-c3cn(C)c4ccccc34)n2)c(OC)cc1N(C)CCN(C)C` [Osimertinib (AZD9291)], the inhibition at 100 µM amounted to 0%.

With `OCCOc1ccc(/C(=C(/CCCl)c2ccccc2)c2ccccc2)cc1` [Ospemifene], the inhibition at 100 µM turned out to be 16.8%.

Consider `CCNC1(C(N)=O)CCN(c2ncnc3c2nc(-c2ccccc2Cl)n3-c2ccc(Cl)cc2)CC1` [Otenabant (CP-945598) HCl], for which the inhibition at 100 µM is 2.29%.

As for `CCCCCCCCOc1ccccc1C(=O)Nc1ccc(C(=O)OCC[N+](C)(CC)CC)cc1` [Otilonium Bromide], the inhibition at 100 µM is 11%.

For the molecule `C[C@@H]1O[C@@H](O[C@H]2C[C@@H](O)[C@]3(CO)[C@H]4[C@H](O)C[C@]5(C)[C@@H](C6=CC(=O)OC6)CC[C@]5(O)[C@@H]4CC[C@]3(O)C2)[C@H](O)[C@H](O)[C@H]1O` [Ouabain], the inhibition at 100 µM came to 0%.

As for `CC(=O)N1C[C@H](O)C[C@H]1C(=O)O` [Oxaceprol], the inhibition at 100 µM was 0%.

On to `Cc1onc(-c2ccccc2)c1C(=O)N[C@@H]1C(=O)N2[C@@H]1SC(C)(C)[C@@H]2C(=O)O` [Oxacillin sodium monohydrate], for which the inhibition at 100 µM amounted to 0%.

`O=C(O)CCc1nc(-c2ccccc2)c(-c2ccccc2)o1` [Oxaprozin]: the inhibition at 100 µM came to 11.8%.

As for `NC(=O)N1c2ccccc2CC(=O)c2ccccc21` [Oxcarbazepine], the inhibition at 100 µM was determined as 0%.

As for `CCN(CC)CCOCCOC(=O)C(CC)(CC)c1ccccc1` [Oxeladin Citrate], the inhibition at 100 µM was 0.462%.

Regarding `CN(C(=O)CN(CCO)CC(=O)N(C)C(C)(C)Cc1ccccc1)C(C)(C)Cc1ccccc1` [Oxethazaine], the inhibition at 100 µM turned out to be 19.2%.

Consider `COC(=O)Nc1nc2cc([S+]([O-])c3ccccc3)ccc2[nH]1` (centres unmarked) [Oxfendazole], for which the inhibition at 100 µM is 0%.

Consider `NCCc1cc(O)c(O)cc1O` [Oxidopamine (hydrobromide)], for which the inhibition at 100 µM was determined as 0%.

Consider `NC(=O)CN1CC(O)CC1=O` (centres unmarked) [Oxiracetam], for which the inhibition at 100 µM worked out at 21.6%.

Take `COc1ccc(C(=O)c2ccccc2)c(O)c1` [Oxybenzone]: the inhibition at 100 µM stood at 0.0343%.

With `CCCCOc1cc(C(=O)OCCN(CC)CC)ccc1N` [Oxybuprocaine HCl], the inhibition at 100 µM came to 8.43%.

For the molecule `O=C(Nc1cc(Cl)cc(Cl)c1O)c1c(O)c(Cl)cc(Cl)c1Cl` [Oxyclozanide], the inhibition at 100 µM is 8.75%.

Consider `CN(C)[C@@H]1C(=O)C(C(N)=O)=C(O)[C@@]2(O)C(=O)C3=C(O)c4c(O)cccc4[C@@](C)(O)C3[C@H](O)C12` (some centres unmarked) [Oxytetracycline (Terramycin)], for which the inhibition at 100 µM stood at 15.9%.

`CN(C)[C@@H]1C(O)=C(C(N)=O)C(=O)[C@@]2(O)C(O)=C3C(=O)c4c(O)cccc4[C@@](C)(O)[C@H]3[C@H](O)[C@@H]12` [Oxytetracycline Dihydrate]: the inhibition at 100 µM stood at 0%.

With `CC(C)Oc1ccc(-c2nc(-c3cccc4c3CC[C@@H]4NCCO)no2)cc1C#N` [Ozanimod (RPC1063)], the inhibition at 100 µM was 0%.

For `CC(=O)O[C@H]1C(=O)[C@@]2(C)[C@H]([C@H](OC(=O)c3ccccc3)[C@]3(O)C[C@H](OC(=O)[C@H](O)[C@@H](NC(=O)c4ccccc4)c4ccccc4)C(C)=C1C3(C)C)[C@]1(OC(C)=O)CO[C@@H]1C[C@@H]2O` [Paclitaxel], the inhibition at 100 µM amounted to 6.04%.

`C1=N/C2=N/c3ccc(OCCN4CCCC4)c(c3)COC/C=C/COCc3cccc(c3)C(=C1)N2` [Pacritinib (SB1518)]: the inhibition at 100 µM is 0%.

Consider `CC(=O)c1c(C)c2cnc(Nc3ccc(N4CCNCC4)cn3)nc2n(C2CCCC2)c1=O` [Palbociclib (PD-0332991) HCl], for which the inhibition at 100 µM was 0%.

Regarding `Cc1nc2n(c(=O)c1CCN1CCC(c3noc4cc(F)ccc34)CC1)CCCC2O` (centres unmarked) [Paliperidone], the inhibition at 100 µM was 1.55%.
